# Experimental data reported in patent US20140366441A1, “VEGETATIVE PROPAGATION OF SOYBEAN PLANTS IN A HYDROPONIC ENVIRONMENT” (Bayer Cropscience LP, priority 2012, published 2014).
# Key:
# [1] = test system: Soybean shoots; experiment: Root development of soybean shoot cuttings in 50 ml tubes with water or fertilizer solution ± NAA; type: in vivo; conditions: NAA at 10^-8 M and 10^-7 M; day 12; FIG. 1B
# Experimental: Soybean shoots 10 to 15 cm long were cut from 2 similar plants and placed in 50 ml plastic tubes. One shoot was placed in each tube. The tubes contain 50 ml solutions according to the following design: The base solution was either water or a 1:200 dilution of fertilizer stock solution A, B and C. Stock A contains 958.6 grams of 21-5-20 All Purpose from Jack's Professional, 133.8 grams of 15-0-15 Dark Weather (Jack's Professional) and 60.0 grams of 10-0-0 Magnitrate Special (Peter's Excel) in 2 liter of water. Stock B contains 239.6 grams of 15-5-25 Poinsettia Peat-Lite Special (Jack's Professional) in 2 liters of water. Stock C contains 60.0 grams of Epsom salt (magnesium sulfate) in 1.0 liter of water. NAA (1-Naphthaleneacetic acid, Sigma-Aldrich) was added to either water or fertilizer solutions to concentrations of 0, 10^-9 M, 10^-8 M and 10^-7 M. There were 2 fertilizer (with or without) treatments×4 NAA treatments, totaling 8 treatments. The experiment was repeated 3 times, making a total of 24 tubes. The shoots in the solutions were placed in a greenhouse with 20 hour light cycles at 28° C. and 4 hour night cycles at 22° C.
# [2] = test system: Soybean shoot cuttings; experiment: Root development of soybean shoot cuttings in tissue culture boxes with fertilizer solution and NAA; type: in vivo; conditions: higher NAA concentrations (10^-8 M, 10^-7 M, 10^-6 M tested); nine days; FIG. 3
# Experimental: Three NAA concentrations at 10^-8 M, 10^-7 M and 10^-6 M with 5 cm, 10 cm and 15 cm long shoots were tested in replicate. Soybean shoot cuttings were taken from plants recovered from tissue culture. Tissue culture boxes (Vitro […]) were used to hold the solutions, and the lids with a 2.5 cm hole in the middle were used to hold the shoots with the help of a cylindrical sponge. NAA solution was obtained from PhytoTechnology Laboratories. Fertilizer was applied from the stock A, B, and C solutions described in Example 1. Three separate 5-liter fertilizer solutions were made by mixing 10 ml each of fertilizer stock solution A, B and C in 4970 ml of tap water. NAA stock solution was added to achieve a final concentration of 10^-8 M, 10^-7 M and 10^-6 M solution, respectively. Soybean shoot cuttings were inserted into the sponge roll, and placed through the lid of the tissue culture box. The shoots in the solutions were placed in a greenhouse with 20 hour light cycles at 27° C. and 4 hour night cycles at 21° C. Data was collected nine days after the shoots were placed in the boxes.
smiles,measurement,setting,value
"O=C(O)Cc1cccc2ccccc12 [NAA, 1-Naphthaleneacetic acid]",effect of NAA on root growth (root length),[1],positive effects on root growth
same,effect of NAA on root length,[2],kept the roots shorter
same,effect of NAA on root number,[2],stimulated more roots from a shoot
